Source: publication PMC9519446, “Discovery of an Orally Active Benzoxaborole Prodrug Effective in the Treatment of Chagas Disease in Non-human Primates” (Nature microbiology, 2022)
Several values for one entry are separate records, joined by “and”; a condition that tells them apart may be missing. Identical values can stand only once.

How the values were obtained:
[1] = tested on: CPSF3 mutant T. cruzi intracellular amastigotes; assay: Intracellular amastigote assay with CPSF3 Asn to His mutant T. cruzi; format: cell-based, Trypanosoma cruzi; settings: for % of maximum: Fig 5.d, CPSF3-mutant
Description: The in vitro anti-T. cruzi amastiogote activity assay was performed and optimized based on the protocol described previously. The change in tdTomato fluorescence intensity was determined as a measurement of growth over 72 hours of culture. For assaying drug effects on extracellular amastigotes, trypomastigotes were collected from infected Vero cell cultures and converted in acidic media as previously described. Amastigotes (50,000/well) were incubated with 2-fold serial dilutions of compounds for 48 hours. The ATP production was used as an indication of growth in this case, and was measured by ATPlite Luminescence ATP Detection Assay System (PerkinElmer). Both fluorescence and luminescence were read using a BioTek Synergy Hybrid Multi-Mode reader equipped with the software Gene5 v 2.0 (BioTek). The dose-response curve was generated by […] analysis with GraphPad Prism v9.4.0 (GraphPad Software).
To generate CPSF3 mutant, a RNP c omplex was transfected into Brazil tdTomato strain epimastigotes to target the CPSF3 gene (TcBrA4_0124800), together with a repair template that contained the mutation of Asn^231 to His[21]. The sgRNA targeted the ‘[…]’ site. […] The ultimate resistant parasites were validated to have acquired the Asn^231His mutation in CPSF3 via sequencing.

[2] = tested on: Luciferase expressing T. cruzi (Colombiana strain); assay: Low dose short treatment (whole body bioluminescence); format: in vivo, Hairless mice (SKH-1)
Excerpt: Bioluminiscence signal of the whole body was measure after D-luciferin injection in a Lumina II IVIS in vivo imager equipped with the Living Imaging 4.0 software (PerkinElmer).

[3] = tested on: T. cruzi (naturally acquired infection); assay: NHP treatment study: blood qPCR for T. cruzi DNA; format: in vivo, rhesus macaques (Macaca mulatta)
Excerpt: (§1) A total of 22 rhesus macaques that had been confirmed to be serologically- and PCR-positive for T. cruzi were utilized in these studies. Using 19 animals in the treatment group provided 85% power of detecting 100% efficacy. […] The remaining three animals on the study were maintained as untreated control animals and received food treats but were not dosed with AN15368.
Blood samples from each macaque were collected at various time points and processed for quantification of T. cruzi DNA by real-time qPCR. Between 8-10ml of whole blood collected in EDTA anticoagulant tubes was subjected to DNA extraction using the Omega E.Z.N.A. Blood DNA Maxi Kit (Omega Bio-Tek), following the manufacturer’s instructions for up to 10 ml whole blood and using a total of 650 μl of elution buffer. Each round of extractions included a negative (no-template) control comprised of 10 ml PBS. The concentration of DNA in the eluted solution was quantified after each extraction using an Epoch microplate spectrophotometer (BioTek).
DNA from each sample was then subjected to a series of two qPCR assays for detection of T. cruzi satellite DNA. The first qPCR used the cruzi 1, 2 primer set and cruzi 3 TaqMan probe as previously described, [54], using BioRad iTaq Universal Probes Supermix (Bio-Rad). […] We selected FAM and VIC channels for each read.

[4] = tested on: T. cruzi (naturally acquired infection); assay: NHP treatment study: hemoculture; format: in vivo, rhesus macaques (Macaca mulatta); settings: 30 mg/kg/day oral 60 days; all time points after end of treatment
Description: as §1
For hemoculture determinations, peripheral blood from macaques was collected and cultured at 26°C in supplemented liver digest neutralized tryptose medium as described previously. The presence of T. cruzi parasites was assessed every week for 3 months under an inverted microscope. T. cruzi DTU of the macaque isolates was determined as previously described.

NHP bodyweights = format: in vivo, rhesus macaques (Macaca mulatta); settings: individual treated macaques
[5] = NHP clinical observation, physical exams and reproductive follow-up
Description: Under light-anesthesia/sedation, peripheral blood samples were collected from each animal prior to treatment and at 7 time points following. Blood analysis (CBC and serum chemistry assays) and physical exams to evaluate the health of the study animals were performed on each animal prior to the beginning of the study and also at three time points during the treatment protocol (see Supplementary data).

[6] = Pharmacokinetics in rats (IV and PO); parameters: species or system rat; settings: in vivo
Description: Rat IV (2 mg/kg) Rat PO (10 mg/kg)
Cl (mL/h/kg) 2258 AUC0-last (hr*µg/mL) 3.34
AUC0-last (hr*µg/mL) 0.883
for AN15368 in rats. Data are presented as mean values +/- SEM; n= 3 animals.

[7] = Plasma protein binding (rat); format: in vitro ADME

Question: Which results are given for `Cc1c(C(=O)N[C@H](C(=O)OCC2CCOCC2)C(C)C)ccc2c1B(O)OC2` [AN15368]?
Answer: % of maximum ([1]; 0.10): 3% and 1%; % of maximum ([1]; 0.40): -6%; % of maximum ([1]; 0.70): 2% and -5%; % of maximum ([1]; 1.00): -6% and -2%; % of maximum ([1]; 1.30): -4% and -2% and 5%; % of maximum ([1]; -0.51): 97% and 106% and 96%; % of maximum ([1]; -0.81): 96% and 123% and 105%; % of maximum ([1]; -1.11): 92% and 97% and 122%; IC50 ([1]; Trypanosoma cruzi, read-out: CPSF3 mutant IC50): 500 nM; Bioluminiscence signals of mice ([2]; AN15368_2.5mg, 19 dpi): 29400000 and 22400000 and 35610000 and 24370000; Bioluminiscence signals of mice ([2]; AN15368_5mg, 15 dpi): 8923000 and 11990000; Bioluminiscence signals of mice ([2]; AN15368_5mg, 19 dpi): 2040000; parasite DNA in blood (in words) ([3]; 30 mg/kg/day oral 60 days, all time points after end of treatment): negative; efficacy / cure ([3]; naturally infected NHPs, 30 mg/kg/day 60 days): 100%; culture of parasites from blood (in words) [4]: negative; bodyweight at end of study (remark) (NHP bodyweights): Weighed less at end of study; Bodyweights (NHP bodyweights; weighing 2017-09-11/12): 6.37 kg and 8.90 kg and 7.40 kg and 5.20 kg and 6.40 kg and 6.70 kg and 7.70 kg and 7.60 kg and 7.10 kg and 6.30 kg and 7.20 kg and 7.30 kg; Bodyweights (NHP bodyweights; weighing 2017-10-18/19): 7.00 kg and 9.40 kg and 7.50 kg and 5.30 kg and 6.60 kg and 7.10 kg and 8.00 kg and 7.70 kg and 7.20 kg and 6.40 kg; Bodyweights (NHP bodyweights; weighing 2017-11-16): 7.30 kg and 9.70 kg and 7.70 kg and 5.50 kg and 6.90 kg and 8.30 kg and 7.00 kg and 6.70 kg and 7.90 kg; Bodyweights (NHP bodyweights; weighing 2017-12-05/06): 7.50 kg and 9.70 kg and 7.80 kg and 5.80 kg and 6.90 kg and 7.10 kg and 8.10 kg and 7.00 kg and 8.40 kg; Bodyweights (NHP bodyweights; weighing 2017-12-19/20): 7.50 kg and 9.70 kg and 7.60 kg and 5.50 kg and 6.50 kg and 6.70 kg and 8.10 kg and 7.40 kg and 6.60 kg and 7.90 kg and 7.70 kg; Bodyweights (NHP bodyweights; weighing 2018-01-08/09): 7.60 kg and 9.80 kg and 7.80 kg and 5.40 kg and 6.60 kg and 6.80 kg and 8.20 kg and 6.90 kg and 7.00 kg; Bodyweights (NHP bodyweights; weighing 2018-01-22/23): 7.60 kg and 9.95 kg and 7.90 kg and 5.60 kg and 6.80 kg and 7.15 kg and 8.25 kg and 7.65 kg and 6.85 kg and 8.10 kg and 8.20 kg; Bodyweights (NHP bodyweights; weighing 2018-02-26/27): 8.05 kg and 10.20 kg and 7.90 kg and 5.70 kg and 6.95 kg and 7.25 kg and 8.45 kg and 7.80 kg and 7.30 kg and 8.35 kg and 8.25 kg; Bodyweights (NHP bodyweights; weighing 2018-03-26/27): 8.00 kg and 10.15 kg and 5.75 kg and 7.00 kg and 7.55 kg and 8.65 kg and 7.85 kg and 6.95 kg and 7.50 kg and 8.20 kg and 8.75 kg; Bodyweights (NHP bodyweights; weighing 2018-04-09/10/11): 7.95 kg and 10.20 kg and 8.10 kg and 5.90 kg and 6.85 kg and 7.15 kg and 8.70 kg; adverse events ([5]; 19 treated macaques, 60 day treatment period): No adverse events; healthy and T. cruzi-seronegative infants produced ([5]; female, rhesus monkey, in vivo, 2 years): 13; AUC(0-t) ([6]; Rat IV (2 mg/kg)): 883 ng·h/mL; Cmax ([6]; Rat IV (2 mg/kg)): 1700 ± 200 ng/mL; clearance ([6]; Rat IV (2 mg/kg)): 37.6 mL/min/kg; Vd ([6]; Rat IV (2 mg/kg), read-out: Vss): 1.11 L/kg; AUC(0-t) ([6]; Rat PO (10 mg/kg)): 3340 ng·h/mL; Cmax ([6]; Rat PO (10 mg/kg)): 2100 ± 290 ng/mL; bioavailability ([6]; Rat PO (10 mg/kg)): 76.1%; Funbound (rat) [7]: 10%
